Measured values from publication PMC8151276, “An Integrated Approach toward NanoBRET Tracers for Analysis of GPCR Ligand Engagement” (Molecules, 2021).

Experiments:
FZD10 = molecular target: T1, FZD10 (Homo sapiens, UniProt Q9ULW2); assay: NanoBRET screen HiBiT-FZD10 in HEK293; type: binding; conditions: FZD10
T1 construct: purchased Promega (in-house HiBiT-GPCR construct library, NanoBRET)
T1 sequence (Q9ULW2 21-581): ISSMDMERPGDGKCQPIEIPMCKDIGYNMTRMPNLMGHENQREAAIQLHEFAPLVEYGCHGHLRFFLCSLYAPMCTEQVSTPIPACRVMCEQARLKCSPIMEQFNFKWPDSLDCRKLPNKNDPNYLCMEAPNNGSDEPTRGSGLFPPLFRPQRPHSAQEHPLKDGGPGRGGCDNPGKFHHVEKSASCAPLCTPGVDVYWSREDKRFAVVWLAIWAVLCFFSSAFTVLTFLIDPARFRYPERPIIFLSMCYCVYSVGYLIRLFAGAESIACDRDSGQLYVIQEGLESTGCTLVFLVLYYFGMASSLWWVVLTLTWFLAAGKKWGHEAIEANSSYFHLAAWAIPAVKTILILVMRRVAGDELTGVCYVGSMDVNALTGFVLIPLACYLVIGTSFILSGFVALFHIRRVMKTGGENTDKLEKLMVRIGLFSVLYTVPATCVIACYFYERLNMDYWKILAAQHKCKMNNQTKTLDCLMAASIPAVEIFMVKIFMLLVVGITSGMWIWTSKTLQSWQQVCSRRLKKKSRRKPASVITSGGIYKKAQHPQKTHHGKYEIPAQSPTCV
Experimental: (§1) Each tracer candidate was screened across the entire library of HiBiT-GPCR constructs using NanoBRET as the detection modality. As depicted in Figure 4A, the specificity of interactions was evaluated through decrease in BRET due to competitive displacement of a bound tracer by excess parental compound. Each tracer was analyzed for binding to each HiBiT-GPCR fusion in the absence and in the presence of competing parental compound. Briefly, HEK293 cells were transfected with HiBiT-GPCR constructs diluted into promoterless DNA to reduce expression and maximize translocation to the cell surface. Each tracer candidate was then screened at concentrations of 1 μM and 0.1 μM across cells expressing these fusions. Cells were treated for 1.5 h with tracer either alone or in the presence of 20 μM competing parental compound (i.e., control). BRET was measured upon addition of purified LgBiT and subsequent complementation with HiBiT genetically fused to a GPCR. The specificity of interactions was assessed through a decrease in BRET signal due to competitive displacement of the bound tracer. To further gauge the robustness of these interactions, the fold response over the control (i.e., BRETtracer/BRETcontrol) was calculated. We chose a 1.5-fold response, which translates to ≥7-fold signal over noise as the minimal threshold required to score an interaction as positive.
(§2) HiBiT-GPCR DNA constructs were diluted in 10 mM Tris pH 8 to a final concentration of 0.01 μg/μL, arrayed in 96-well plates and stored at −20 °C. For transfection, HEK293 cells were suspended in Opti-MEM (without phenol red) supplemented with 2% fetal bovine serum (Seradigm) and 100 units/mL penicillin–streptomycin (Gibco) at a final concentration of 220,000 cells/mL and dispensed into white 96-well plates at 90 μL/well. Subsequent transfections and screens were carried using an Agilent Bravo Automated Liquid Handling Platform. First, the 96-well HiBiT DNA arrays were diluted 25-fold in Opti-MEM (without serum or phenol red) to a final concentration of 0.0004 μg/μL and 20 μL of the diluted DNAs were transferred into new 96-well plates. Next, promoterless carrier DNA (1 μg/μL) was diluted 25-fold (0.04 μg/μL) and then dispensed into the diluted arrays at 20 μL/well. Following brief mixing, Viafect transfection reagent (Promega) diluted 16-fold into Opti-MEM was dispensed into the plates at 40 μL/well. After mixing by pipetting, plates were incubated for 10 min on the pipetting station deck. The DNA-transfection reagent complexes were then added to plates containing cells. To facilitate the screen, 10 μL of DNA-transfection reagent complexes were added in duplicates to the top 4 and bottom 4 rows, resulting in two identical 48-well arrays per plate. Plates with transfected cells were incubated for 18–20 h at 37 °C/5% CO2. A screen of each tracer across the entire library using two different concentrations requires duplicate plates of transfected cells. Depending on the number of tracers being screened, transfections can be scaled up using the same ratios. The next day, for each tracer, four 20× screening solutions in tracer dilution buffer (Promega) were prepared: two duplicates at final concentration of 20 μM and two duplicates at a final concentration of 2 μM. […] The four resulting solutions were diluted 4-fold in Opti-MEM without serum or phenol red to generate 5× solutions (5 µM and 0.5 µM tracer +/− 100 μM competing compound). To screen the library, a BioTek MultiFlo FX liquid dispenser was used to dispense 22.5 µL of tracer solution to the top 4 rows and 22.5 µL tracer + competing compound solution to the 4 bottom rows. Plates were briefly mixed on an orbital shaker and incubated for 1.5 h at room temperature. […] Plates were briefly mixed on an orbital shaker and incubated for 15 min to allow complementation.

MCHR2 = molecular target: T2, MCHR2 (Homo sapiens, UniProt Q969V1); assay: NanoBRET screen HiBiT-MCHR2 in HEK293; type: binding; conditions: MCHR2
T2 construct: purchased Promega (in-house HiBiT-GPCR construct library, NanoBRET)
Experimental: as §1, §2

T2 sequence (Q969V1 whole entry): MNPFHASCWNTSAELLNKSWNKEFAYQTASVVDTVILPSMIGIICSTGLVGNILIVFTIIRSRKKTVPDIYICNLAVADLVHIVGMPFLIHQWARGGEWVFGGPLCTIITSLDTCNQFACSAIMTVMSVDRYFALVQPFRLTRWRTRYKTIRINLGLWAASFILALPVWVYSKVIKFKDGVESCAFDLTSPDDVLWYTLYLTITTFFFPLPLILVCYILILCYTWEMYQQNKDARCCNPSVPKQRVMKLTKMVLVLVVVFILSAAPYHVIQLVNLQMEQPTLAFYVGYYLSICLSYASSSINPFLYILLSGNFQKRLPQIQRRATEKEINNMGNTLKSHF

Row | Compound | NanoBRET Fold Response (FZD10; tracer 0.1μM) | NanoBRET Fold Response (FZD10; tracer 1μM) | NanoBRET Fold Response (MCHR2; tracer 0.1μM) | NanoBRET Fold Response (MCHR2; tracer 1μM) | other results
1 | CN1CCN(C2=Nc3cc(Cl)ccc3Nc3ccc(CNC(=O)CCOCCOCCOCCOCCNC(=O)CCc4ccc5n4[B-](F)(F)[N+]4=C(c6ccc[nH]6)C=CC4=C5)cc32)CC1 [Clozapine-b-2-NB590] | – | – | – | – | NanoBRET Fold Response (FZD10; 0.1μM tracer): 1.01; NanoBRET Fold Response (FZD10; 1μM tracer): 1.08; NanoBRET Fold Response (MCHR2; 0.1μM tracer): 1.00; NanoBRET Fold Response (MCHR2; 1μM tracer): 0.97
2 | CN1CCN(C2=Nc3cc(Cl)ccc3N(CC(=O)NCCOCCOCCOCCOCCNC(=O)CCc3ccc4n3[B-](F)(F)[N+]3=C(c5ccc[nH]5)C=CC3=C4)c3ccccc32)CC1 [Clozapine-c-2-NB590] | – | – | – | – | NanoBRET Fold Response (FZD10; 0.1μM tracer): 1.00; NanoBRET Fold Response (MCHR2; 0.1μM tracer): 1.06; NanoBRET Fold Response (MCHR2; 1μM tracer): 1.01
3 | O=C(CCc1ccc2n1[B-](F)(F)[N+]1=C(c3ccc[nH]3)C=CC1=C2)NCc1ccc(C(=O)NCCOCCC(=O)N[C@@H]2CC[C@@]3(O)[C@H]4Cc5ccc(O)c6c5[C@@]3(CCN4CC3CC3)[C@H]2O6)cc1 [Naltrexone-3-NB590] | 0.66 | 1.06 | 1.10 | 1.01 | –
4 | Cc1cc2c(s1)Nc1ccccc1N=C2N1CCN(CCCNC(=O)CCOCCOCCOCCOCCNC(=O)CCc2ccc3n2[B-](F)(F)[N+]2=C(c4ccc[nH]4)C=CC2=C3)CC1 [Olanzapine-a-2-NB590] | 0.98 | 0.99 | 0.98 | 1.01 | –
5 | O=C(CCc1ccc2n1[B-](F)(F)[N+]1=C(c3ccc[nH]3)C=CC1=C2)NCc1ccc(C(=O)NCCOCCOCCNCC(O)COc2cccc3ccccc23)cc1 (stereo not drawn) [Propranolol-3-NB590] | – | – | – | – | NanoBRET Fold Response (FZD10; 0.1μM): 1.04; NanoBRET Fold Response (FZD10; 1μM): 1.02; NanoBRET Fold Response (MCHR2; 0.1μM): 0.91; NanoBRET Fold Response (MCHR2; 1μM): 1.02
6 | O=C(CCc1ccc2n1[B-](F)(F)[N+]1=C(c3ccc[nH]3)C=CC1=C2)NCCOCCOCCNC(=O)OCCOCCN1CCN(C2=Nc3ccccc3Sc3ccccc32)CC1 [Quetiapine-a-2-NB590] | 0.92 | 0.80 | 1.03 | 0.74 | –
7 | Cc1nc2n(c(=O)c1CCN1CCC(c3noc4cc(F)ccc34)CC1)CCCC2OC(=O)NCCOCCOCCOCCOCCNC(=O)CCc1ccc2n1[B-](F)(F)[N+]1=C(c3ccc[nH]3)C=CC1=C2 (stereo not drawn) [Risperidone-2-NB590] | 1.00 | 1.04 | 0.96 | 0.97 | –
